Results on 4 molecules are retold here after patent publication US11952337B2, “Bioenergetically active esters for health and disease” (University of Kansas, priority 2018, dated 2024).

The conditions of series [1]: in solution, especially in the presence of amino acids; cited from earlier work.
For series [2], the system named is SH-SY5Y cells. Description: Respiration / oxygen consumption rate (OCR), Seahorse Extracellular Flux analyzer. The following applies: for Effect on respiration (OCR), in words: SH-SY5Y cultured neuronal cells; for ATP-linked Respiration / Change in OCR post injection (1) / Maximum OCR / Post-Oligomycin (Leak Rate) OCR: average of three experiments; for Increase of cellular respiration and/or glycolysis, near maximum possible levels: preliminary testing, FIGS. 2 and 3. The format is cell-based, human. As to the method: (§1) In these experiments, oligomycin, FCCP, rotenone/antimycin, and 2-deoxyglucose were used to determine the proportion of oxygen that was consumed as part of the mitochondrial “leak” and “ATP production”; maximum and spare flux rates were also determined using standard established flux analysis protocols. […] FIG. 1D schematically summarizes this pathway.
(§2) For these measurements, oligomycin, FCCP, and rotenone/antimycin were used to determine mitochondrial respiration leak rates, the maximum oxygen consumption rate, and the non-mitochondrial oxygen consumption rate. […] The dose-response was logarithmic over a test range of 0.1 to 2 mM (FIG. 4). FIG. 3A illustrates respiration peaking at ˜40% enhancement, which is the maximum possible when mitochondria are chemically uncoupled.

The conditions of series [3]: mice, cited from earlier work.
For series [4], the system named is SH-SY5Y cells. Description: Glycolysis flux (ECAR), Seahorse Extracellular Flux analyzer. The format is cell-based, human. As to the method: as §1, §2
For series [5] the following is noted: cited from earlier work.

“Also recorded” adds a separate entry of the source.

Regarding `O=C(O)CC(=O)C(=O)O` [OAA, 2-oxosuccinic acid], in series [1], the “Decarboxylation rate into pyruvate” value was roughly 1 %/min. Also, in series [2] (OAA treatment, SH-SY5Y, FIG. 1C), the “Increase in cellular respiration” value is “about 50%”. In addition, in series [2], the “Effect on respiration (OCR), in words” value is listed as “increase aspects of mitochondrial respiration flux”. In series [3] (1 g/kg/day and 2 g/kg/day), the Brain changes entry is reported as “induced unequivocal brain changes”. Further, in series [3] (intraperitoneal (IP) injection), the “Activity of NFκB transcription factor (neuroinflammation)” value is “lessened activity”, the Hippocampal neurogenesis result is “increased hippocampal neurogenesis”, the “Insulin pathway signaling in brain” value is listed as “enhanced insulin pathway signaling” and the “Mitochondrial biogenesis parameters in brain” value is listed as “promoted mitochondrial biogenesis parameters”. Further, the “Increase in glycolysis flux capacity” value in series [4] (2 mM OAA, SH-SY5Y, FIG. 1B) is reported as “about 50%”. Moreover, the “Effect on glycolysis flux” value in series [4] (2 mM, SH-SY5Y, FIG. 1B) is given as “enhances rather than impedes glycolysis flux”. In addition, in series [5] (AD clinical study, doses up to 1 gram BID), the Safety profile entry was “excellent safety profile”. Moreover, in series [5] (PK study, 100 mg BID, AD participants), the Plasma level increase entry is given as “did not reveal a reliable plasma level increase”.
With `CC(O)COC(=O)CC(=O)C(=O)OCC(C)O` (centres unmarked) [OAA(PG)2, Bis(2-hydroxypropyl) 2-oxosuccinate], in series [2] (0.1 mM, SH-SY5Y), the “ATP-linked Respiration” value worked out at 50.1%, the “Change in OCR post injection (1)” value was 101.7%, the “Maximum OCR” value stood at 98.92% and the “Post-Oligomycin (Leak Rate) OCR” value amounted to 51.58%. In addition, in series [2] (0.25 mM, SH-SY5Y), the “ATP-linked Respiration” value turned out to be 50.66%, the “Change in OCR post injection (1)” value was found to be 101.1%, the “Maximum OCR” value turned out to be 93.08% and the “Post-Oligomycin (Leak Rate) OCR” value was determined as 50.46%. In addition, in series [2] (0.5 mM, SH-SY5Y), the “ATP-linked Respiration” value is 44.78%, the “Change in OCR post injection (1)” value worked out at 103.9%, the “Maximum OCR” value is 93.62% and the “Post-Oligomycin (Leak Rate) OCR” value was determined as 59.15%. In addition, in series [2] (1 mM, SH-SY5Y), the “ATP-linked Respiration” value came to 52.7%, the “Change in OCR post injection (1)” value turned out to be 106.5%, the “Maximum OCR” value was 81.46% and the “Post-Oligomycin (Leak Rate) OCR” value is listed as 53.8%. Also, in series [2] (2 mM, SH-SY5Y), the “ATP-linked Respiration” value was found to be 68.89%, the “Change in OCR post injection (1)” value was determined as 119.8%, the “Maximum OCR” value came to 91.73% and the “Post-Oligomycin (Leak Rate) OCR” value was 50.86%. Also, in series [2], the “Effect on respiration (OCR), in words” value is “enhance respiration” and the “Increase of cellular respiration and/or glycolysis, near maximum possible levels” value is roughly 40%. In series [2] (SH-SY5Y, FIG. 3A, maximum possible when mitochondria are chemically uncoupled), the “Peak enhancement of respiration” value was roughly 40%. In series [2] (test range of 0.1 to 2 mM, FIG. 4), the “Shape of dose-response of respiration” value is reported as “logarithmic”. Moreover, the “Effect on glycolysis (ECAR)” value in series [4] (1, 2 and 5 mM OAA(PG)2, SH-SY5Y, FIG. 3B) is on record as “without concomitantly creating a statistical reduction in the glycolysis flux; also recorded: insignificant effect on glycolysis”.
With `CC(O)C(=O)O` (centres unmarked) [lactate, reference compound], the “Effect on respiration, in words” value in series [2] (experiments not further specified) is given as “effectively promote respiration”.
`CC(CC(=O)O)OC(=O)CC(=O)C(=O)OC(C)CC(=O)O` (centres unmarked) [OAA(BHB)2, 3,3′-((2-oxosuccinyl)bis(oxy))dibutyric acid]: in series [2] (1-mM dose, SH-SY5Y, FIG. 2, averages of three experiments), the “Increase in cell respiration” value is reported as roughly 30%. In series [2], the “Effect on respiration (OCR), in words” value is given as “increases respiration” and the “Increase of cellular respiration and/or glycolysis, near maximum possible levels” value is roughly 40%.
